# Data reported in US9018252B2, “Stable compositions of dehydroascorbic acid” (priority 2010, dated 2015).
# Key:
# [1] = tested on: HSV-1, influenza virus, poliovirus; settings: cited from earlier work; for antiviral effects in vitro: viruses such as HSV-1, influenza virus, poliovirus
# [2] = solid form; cited from earlier work
# [3] = DHAA stability testing of glycerol solution oxidized with activated charcoal and oxygen (Example 2); format: physicochemical; settings: "100% Glycerol", activated charcoal/oxygen oxidation, room temperature, 191 days
# From the text: (§1) AA concentration in solution is commonly measured as the reducing activity of the solution using starch-iodine titration methods that are well-known in the art. […] This method is also well known in the art. DHAA in solution can be converted into AA by reducing agents such as dithiothreitol (DTT) or tris(2-carboxyethyl)phosphine (TCEP), and its concentration is commonly measured spectrophotometrically as the difference in absorbance of a solution subjected to reduction by DTT or TCEP versus a similar solution that is not subjected to a reducing agent. These methods are also well-known in the art, but see Deutsch for examples. In the description, claims, and the following examples, DHAA in the compositions of the invention is the vitamin C that can be measured by the difference in absorbance at 262 nm using TCEP reducing agent.
# A solution of AA in pure USP glycerol was subjected to oxidizing conditions by suspending activated charcoal in the solution and then bubbling pure oxygen through the solution. Oxidation of AA during this process was monitored by starch-iodine titration. After the desired amount of AA had been oxidized, the activated charcoal was removed from the solution by centrifugation and filtration. […] The concentration of DHAA in the sample was measured by spectrometry on each testing day. […]
# [4] = DHAA stability testing of solutions with various AA:DHAA ratios (Example 4); format: physicochemical
# From the text: AA concentration in solution is commonly measured as the reducing activity of the solution using starch-iodine titration methods that are well-known in the art. […] This method is also well known in the art. DHAA in solution can be converted into AA by reducing agents such as dithiothreitol (DTT) or tris(2-carboxyethyl)phosphine (TCEP), and its concentration is commonly measured spectrophotometrically as the difference in absorbance of a solution subjected to reduction by DTT or TCEP versus a similar solution that is not subjected to a reducing agent. These methods are also well-known in the art, but see Deutsch for examples. In the description, claims, and the following examples, DHAA in the compositions of the invention is the vitamin C that can be measured by the difference in absorbance at 262 nm using TCEP reducing agent. […]
# (§2) Aliquots of each of the solutions prepared above were placed in transparent, screw-capped glass vials and were stored at room temperature. […] The concentration of DHAA in each sample was measured by spectrometry on each testing day. The initial DHAA concentration of each solution was recorded and assigned a value of 100% (Day 0), and the concentration on each subsequent stability test day was calculated as the percent remaining of the initial concentration.
# [5] = DHAA stability in polyol solutions (general statements); format: physicochemical
# human skin cells = settings: cited from earlier work
# [6] = DHAA stability testing of ozone-oxidized glycerol/water solutions (Example 1); format: physicochemical
# From the text: as §1
# A 15% AA solution in water was prepared by adding 15 grams AA per 100 mL purified water with stirring. A 15% solution of AA in glycerol was prepared by adding 15 grams AA per 100 mL pure USP glycerol and stirring with heat. A corona-discharge type ozone generator with feed-gas of pure oxygen was used to supply an oxidizing gas containing about 5% ozone, and each of the 15% AA solutions was subjected to oxidizing conditions by bubbling the oxidizing gas through the solution using a glass diffuser. The progress of AA oxidation in each solution was monitored by the disappearance of reducing activity as measured by starch-iodine titration. Each solution was subjected to the oxidizing conditions until all (>99%) of the original reducing activity had disappeared. The solution made with pure glycerol was labeled “100% Glycerol,” and the solution made with purified water was labeled “100% Water.” Portions of these two solutions were combined to produce solutions of various glycerol concentrations by weight, specifically “99% Glycerol,” “98% Glycerol,” “97% Glycerol,” “96% Glycerol,” “95% Glycerol”, “90% Glycerol,” and “50% Glycerol.” For example, 99 parts by weight of “100% Glycerol” was combined with 1 part by weight “100% Water” to produce the “99% Glycerol” solution.
# Aliquots of each of the solutions prepared above were placed in translucent, screw-capped polyethylene vials and were stored at room temperature. No attempt was made to further protect the vials from ambient indoor light, and each vial contained a headspace of normal air. Each vial was periodically opened to remove a sample for stability testing over the next 229 days. The concentration of DHAA in each sample was measured by spectrometry on each testing day. The initial DHAA concentration of each solution on Day 1 was recorded and assigned a value of 100%, and the concentration on each subsequent stability test day was calculated as the percent remaining of the initial concentration.
# [7] = DHAA stability testing of propylene glycol/water solutions oxidized with Fenton's Reagent (Example 3); format: physicochemical; settings: room temperature
# From the text: as §1
# AA was dissolved in purified water to give a highly concentrated solution, and then sufficient 30% hydrogen peroxide was added to oxidize about half of the AA. Iron to catalyze the reaction was provided by addition of ferrous sulfate. Oxidation of the AA was monitored by spectrometry until the expected amount of AA had been oxidized. This solution was labeled “100% Water.” Portions of this solution were combined with portions of pure, USP grade propylene glycol to produce solutions of “97% Propylene Glycol,” “95% Propylene Glycol,” “90% Propylene Glycol,” “80% Propylene Glycol,” “70% Propylene Glycol,” and “50% Propylene Glycol.” For example, 3 parts by volume of the “100% Water” solution were combined with 97 parts by volume propylene glycol to yield the “97% Propylene Glycol” solution.
# as §2, with “translucent,” for “transparent,”, “polyethylene” for “glass”
# [8] = Absorption of AA and DHAA into skin of human volunteers after topical application (Example 5); format: in vivo; settings: 1.4 mg/cm^2, after 4 hours
# Procedure: This solution was applied topically to the skin of human volunteers to compare the absorption rate of AA versus DHAA. To assess permeation into the stratum corneum, the solution was diluted 1:1 with water and applied at a rate of 1.4 mg/cm^2 to delineated skin surfaces and allowed 0, 2 or 4 hours for absorption. Each skin surface was then washed with deionized water, and the skin washings were collected and measured for AA and DHAA content. The amount absorbed at 2 and 4 hours was determined by subtraction from the amount present in the 0 hour washings.
# Data points are the mean+/−SD of triplicate analyses on 4 subjects. The 2 and 4 hour values are the difference as percentage from the 0 hour (baseline) values, determined by analysis of skin washings. It can be seem that after 4 hours DHAA had absorbed into the skin at a rate about 12 times greater than AA, and that the total vitamin C content of the skin was increased at a much more rapid rate than applying AA alone. (Asterisks on FIG. 21 indicate the following: * Statistically significant at P<0.05. ** Statistically significant at P<0.01).
Structure (SMILES),antiviral effects in vitro [1],"ease of dissolving the solid in water, AA compared with DHAA [2]",DHAA stability [3],antiviral effects of DHAA compared with AA ([1]; in vitro),"initial amount of DHAA remaining ([4]; ""Control"": 100% water, initial AA:DHAA about 1:1, room temperature, after 3 days)","DHAA stability ([4]; polyol (100% glycerin) solutions with AA:DHAA ratios between 2:1 and 99:1, room temperature, 30 days)",DHAA stability ([5]; polyol solutions with high water content (water to glycol/polyol at least 1:1)),DHAA stability ([5]; pure polyol solvents and solutions with polyol content greater than about 50 percent),"level absorbed into cells, DHAA relative to AA (human skin cells)","speed of absorption into cells, DHAA relative to AA (human skin cells)","DHAA stability compared with water ([6]; 50% glycerol concentration, room temperature)","initial amount of DHAA remaining ([6]; ""100% Water"" solution, room temperature, tested at 20 days)","initial DHAA concentration remaining ([6]; pure glycerol (""100% Glycerol""), approximately 8 months of storage at room temperature)","DHAA stability ([6]; solutions containing high concentrations of glycerol, room temperature, up to 229 days)","initial amount of DHAA remaining ([7]; ""100% Water"" solution (Fenton's Reagent), after 5 days)","DHAA concentration over time ([7]; many of the propylene glycol solutions, 31 days)","DHAA stability ([7]; solutions containing high concentrations of propylene glycol, 31 days)","rate of absorption into the skin, DHAA relative to AA [8]"
"O=C1O[C@H]([C@@H](O)CO)C(O)=C1O [AA, ascorbic acid]",antiviral effects,far more easily dissolved,–,–,–,–,–,–,–,–,–,–,–,–,–,–,–,–
"O=C1O[C@H]([C@@H](O)CO)C(=O)C1=O [DHAA, dehydroascorbic acid]",antiviral effects,–,excellent long-term stability,much stronger,less than 20%,preserved very well,not stable,stable,2 times,up to 5 times,only minor improvement,less than 10%,greater than 80%,preserved very well,less than 20%,increased significantly,preserved very well,about 12 times
